Values quoted from earlier work, collected in patent US20230159538A1, “PYRROLIDINE-PYRAZOLES AS PYRUVATE KINASE ACTIVATORS” (Global Blood Therapeutics, Inc., priority 2020, published 2023).

Target: PKR (Mus musculus, UniProt P53657)
Details: mouse model of beta-thalassemia; cited from earlier work

Chain of PKR (P53657 whole entry): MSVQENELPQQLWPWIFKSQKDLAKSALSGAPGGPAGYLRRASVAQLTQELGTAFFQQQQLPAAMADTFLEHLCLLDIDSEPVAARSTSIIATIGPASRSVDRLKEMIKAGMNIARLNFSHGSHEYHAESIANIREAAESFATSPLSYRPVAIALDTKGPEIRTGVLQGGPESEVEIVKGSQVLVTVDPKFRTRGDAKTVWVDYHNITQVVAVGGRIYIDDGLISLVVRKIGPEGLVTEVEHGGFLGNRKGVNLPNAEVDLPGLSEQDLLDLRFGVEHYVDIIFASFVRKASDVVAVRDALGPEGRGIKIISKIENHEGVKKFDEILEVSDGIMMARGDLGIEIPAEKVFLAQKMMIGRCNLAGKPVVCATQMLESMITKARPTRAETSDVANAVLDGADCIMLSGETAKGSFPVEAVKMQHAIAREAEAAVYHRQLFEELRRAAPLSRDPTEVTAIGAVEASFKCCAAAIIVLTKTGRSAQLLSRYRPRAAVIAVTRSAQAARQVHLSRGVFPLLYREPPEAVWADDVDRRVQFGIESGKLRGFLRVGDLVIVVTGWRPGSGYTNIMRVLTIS

In the case of `O=C(c1ccc(NS(=O)(=O)c2cccc3cccnc23)cc1)N1CCN(CC2CC2)CC1` [AG-348, Mitapivat], the RBC parameters is listed as “improved”.
